From patent US12303556B2, “Peptides for treatment and prevention of diabetes and associated disorders” (UNIVERSITE DE STRASBOURG, priority 2018, dated 2025)
No end group written: not given here.

Key:
PKC = PKC kinase activity in human adipocytes; assay type: cell-based; conditions: for PKC kinase activity at 25 μg peptide per well: 25 μg per well, 30 minutes, positive control insulin
Experimental: FIG. 1. PKC kinase activity in human adipocytes induced by peptides from alpha PKC. Primary human adipocytes were cultured overnight without insulin and on the next day, the different conditions were used with for each peptide 25 μg of peptide ECTMVEKKVLALL (SEQ ID NO: 50) or 25 ug of peptide SVEWWAYGLLYEMLA (SEQ ID NO: 51) was added to each well and incubated for 30 minutes prior to measuring the PKC activity. Vehicle which is saline solution was the negative control and the positive control used was insulin at […].
FIG. 3. PATAS in vitro dose response to trigger PKC activity in the human adipocytes. PATAS in vitro dose response to trigger PKC activity in the human adipocytes after a 30 minutes incubation of human primary adipocyte with PATAS added to the culture medium. n=5 per group and PATAS quantities are expressed as μg per well.
Two other peptides from PKC alpha, namely ECTMVEKKVLALL (SEQ ID NO: 50) and SVEWWAYGLLYEMLA (SEQ ID NO: 51) have also been tested for their effect on PKC kinase activity.
For PKC kinase activity tests, we used ready to use mature primary human adipocytes originating from omental adipose tissue were purchased from Zenbio in either a 96-well or a 6-well plate format (Catalog #: OA-1096-3 or OA-1006-3). The PKC kinase activity Assay kit (Catalog #: 139437) and procedures were used according to manufacturer's protocol.

[1] = tested on: DIO glucose intolerant male mice; assay: Glucose tolerance test (ipGTT) in DIO glucose intolerant male mice; assay type: in vivo; conditions: single dose 25 micrograms per mouse, ipGTT at day 6, high fat/high glucose diet
Experimental: (FIG. 5A) Glucose tolerance: Mice were injected with either vehicle (saline solution), or vehicle+PATAD 417 or vehicle+ADPIF (CPC peptide A-MRO) at day 0. 6 days later (D6) the mice were fasted for 4 hours and at 0 minute received a […] glucose injection to perform the ipGTT. Glucose levels were measured from tail blood every 30 minutes. Besides the control mice which were fed on chow diet (CTL Chow diet), all the other mice were fed on a high fat/high glucose diet.
Mice were injected with a single dose (25 micrograms per mouse) of either scramble peptide or PATAD or ADPIF/PATAS. These are results obtained from series of glucose tolerance test (ipGTT) in DIO glucose intolerant male mice (FIGS. 5A and B).
At day 0: all mice were fasted for 4 hours in the morning. At 1:00 p.m., control mice received one injection of (body weight in grams)×10 […] of 22% glucose solution ([…] injection). Treated mice were injected with either 25 ug (2.5 uL of mother solution) of tested peptide dissolved in (body weight in grams)×10 of the 22% glucose solution. Blood glucose levels were measured from tail vein blood at every 30 minutes intervals and plotted to determine the effect of the different treatments on the area under the curve.

glycated albumin = assay: Glycated albumin in plasma in the STAM mice model (ELISA); assay type: in vivo; conditions: 5 weekly subcutaneous injections of 25 ug per mouse, 6 mice per group, vs vehicle
Description: FIG. 8. Effect of ADPIF on glycated albumin in plasma in the STAM mice model. Plasma of the treated mice from the Japanese STAMT model were used to measure circulating glycated albumin levels using a commercially available kit. The results are presented in this figure as the mean value of 6 mice per group presented with the standard error of the mean for the error bars.
Glycated albumin is a well-recognized and robust parameter to determine episodes of hyperglycemia in vivo. We therefore used the plasma from the STAMT mice that were treated for 5 weeks with weekly ADPIF/PATAS's injections at 25 ug each compared to control groups which were injected with saline.
For the non-obese STAM mouse model study, C57BL/6 mice (14-day-pregnant female) were obtained from Japan SLC, Inc. (Japan). All animals used in the study were housed and cared for in accordance with the Japanese Pharmacological Society Guidelines for Animal Use. The animals were maintained in a SPF facility under controlled conditions of temperature (23±2° C.), humidity (45±10%), lighting (12-hour artificial light and dark cycles; light from 8:00 to 20:00) and air exchange. The animals were housed in TPX cages (CLEA Japan) with a maximum of 3 mice per cage. Sterilized Paper-Clean (Japan SLC) was used for bedding and replaced once a week. […]

db/db male mice = assay: ipGTT in db/db (BKS) diabetic mice; assay type: in vivo; conditions: 2 mg/kg BW subcutaneous, ipGTT day 4 post-injection, 6-week-old db/db mice on chow diet
Experimental: (FIG. 6A) Blood glucose excursion curve during ipGTT on day 4 post-PATAS subcutaneous injection (2 mg/kg BW PATAS dosing) in 6-week-old db/db male mice on chow diet Post 8 hours fasting. Glucose bolus (2 g/kg body weight) administered […] at T=Omin and the associated AUC histogram (n=10 mice per group Significance was set at *p-value≤0.05, **p-value≤0.01).
PATAS/ADPIF's activity was tested in db/db on the BKS genetic background, diabetic mouse models. […] The mice received a weekly injection of PATAS/ADPIF or vehicle for another 3 weeks followed by another 4 weeks without any treatment while being constantly monitored. […]
At day 0: all mice were fasted for 4 hours in the morning. […] Blood glucose levels were measured from tail vein blood at every 30 minutes intervals and plotted to determine the effect of the different treatments on the area under the curve.

[2] = tested on: primary human mature adipocytes; assay: Glucose uptake assay in human mature adipocytes (2-DG, Abcam kit); assay type: cell-based; conditions: 30 minutes with 2-DG, without insulin, 2.5 μL of peptide at 10 μg/μL in 200 μL; N=8; compared with insulin
Experimental: FIG. 4: Glucose uptake in human primary mature adipocyte. N=8 per group.
Human primary preadipocyte were cultured in a 96-well plate and differentiated in mature human adipocytes. After 3 weeks of culture post adipogenesis, the adipocytes were incubated in culture medium without insulin for 2 hours. Following these 2 hours of insulin fasting, the media were changed back wither either medium without insulin (−INS) or medium with insulin (+INS) or medium with ADPIF (PATAS) for 30 minutes together with 2-DG, a glucose analogue used to determine glucose uptake in the Abcam kit. Following the manufacturer's protocol, we then measured the glucose uptake in 8 wells per condition and calculated the mean that was then plotted in the histogram with the standard error of the mean for the error bars shown in […] FIG. 4.
Human white visceral preadipocytes (Catalog #: C-12732; PromoCell) were purchased. The preadipocytes were seeded according to manufacturer's protocol and cultured in the Preadipocyte growth medium (Catalog #: C-27410; PromoCell) to confluence. Adipogenic differentiation was induced by changing the medium to the Preadipocyte Differentiation Medium (Catalog #: C-27436; PromoCell) for 2 days. After the differentiation phase, the medium was finally changed to the Adipocyte Nutrition medium (Catalog #: C-27438; PromoCell). […]

Bbs10-/- mice = assay: ipGTT in Bbs10-/- mice (Bardet Biedl syndrome model); assay type: in vivo; conditions: 2 mg/kg body weight subcutaneous, 3 days post-injection
Description: FIGS. 7A-7B. PATAS is effective in improving glucose intolerance in a genetic mouse model for a rare disease associated with obesity and type 2 diabetes, the Bardet Biedl syndrome (BBS). BBS mice were on chow diet fed ad libitum. n=4 mice with a cross-over experimental set-up with ipGTT performed before injection and 3 days post-injection. Knockout mouse model for the BBS10 gene (Bbs10^−/−) were generated and spontaneously became obese as described in literature.
Knockout mouse model for the BBS10 gene (Bbs10^−/−) were generated and spontaneously became obese as described in literature.
For the obese mouse model with overt type 2 diabetes mouse, the BKS (D)-Leprdb/J, Stock No: 010803 (were purchased from the Jax Labs. Bbs10 knockout mice were generated by Institute Mouse Clinic (ICS) in Strasbourg and have been previously described in literature. All mice were on a C57/BL6 genetic background. All animals were housed in a temperature and humidity-controlled facility, with a 12 h-light/12 h-dark cycle. The BKS (D)-Leprdb/J mice were fed with chow diet (LM-485; Harlan Teklad Premier Laboratory Diets) whereas the Bbs knockout mice were fed with […] and tap water ad libitum. For ipGTT and ipITT, mice were fasted for 6 hours before start of experiment. Insulin 0.75 U/kg was injected i.v. via the tail vein. Blood glucose and samples were collected from the tail. […]

FATP2 = assay: FATP isoform expression in subcutaneous white adipose tissue of db/db mice; assay type: in vivo; conditions: 4 weekly PATAS injections then 4 weeks without treatment, n=6, GAPDH reference, vs control mice
Experimental: (FIG. 6B) Following 4 weekly PATAS injections, and another 4 weeks without treatment, db/db mice sWAT. Normalized expression levels for the six FATP isoforms (FATP 1-6) in subcutaneous white adipose tissue (sWAT) were determined. n=6 per group with GAPDH as reference gene.
PATAS/ADPIF's activity was tested in db/db on the BKS genetic background, diabetic mouse models. […] The mice received a weekly injection of PATAS/ADPIF or vehicle for another 3 weeks followed by another 4 weeks without any treatment while being constantly monitored.
Total RNA was prepared from the different tissues and cells using a RiboPure™ kit (Catalog #: AM1924; Ambion) followed by a DNAse treatment with the TURBO DNA-free™ (Catalog #: AM 1907; Ambion). RNA integrity was assessed by gel electrophoresis and RNA concentration by Eppendorf Biophotometer Plus with the Hellma® Tray Cell (Catalog #: 105.810-uvs; Hellma). Reverse transcription of 1 μg total RNA to cDNA was performed using the BioRadiScript™ cDNA synthesis kit (Catalog #: 170-8891; BioRad). Real-time quantitative polymerase chain reaction amplification was performed in a BioRad CFX96 TM Real-Time System using the iQ™ SYBR® Green Supermix (Catalog #: 170-8886; BioRAd) and primer sets optimized for tested targets for SYBR Green-based real-time PCR for the real-time PCR. […]

Substance: ECTMVEKKVLALL (hydrocarbon staple; segment of kinase domain of alphaPKC) [Peptide from PKC alpha with M and A carrying the stapling]
- PKC kinase activity at 25 μg peptide per well (PKC): able to increase PKC kinase activity

Substance: SVEWWAYGLLYEMLA (staple (positions not given here); not fully specified; also: hydrocarbon staple, positions not given here) [Peptide from PKC alpha with A and M carrying the stapling]
- PKC kinase activity at 25 μg peptide per well (PKC): able to increase PKC kinase activity

Substance: VE CTM-[2-(4-pentenyl) alanine]-EK RVL A-[2-(4-pentenyl) alanine]-L DKP PFL TQL HS [PATAD, reference compound]
- area under the curve (AUC) of glucose tolerance test [1]: drop in the AUC

Substance: VECTTREKEVLASLDKAAFLTQLHS (staple (positions not given here); not fully specified (bridges); also: hydrocarbon staple via alkenyl Arg and Ser, positions not given here) [ADPIF/PATAS, Stapled peptide wherein R and S carry the stapling, being preferably 2-(7-octenyl)arginine and 2-(4-pentenyl)serine]
- glycated albumin levels in plasma (glycated albumin): significant drop in glycated albumin
- glycated albumin levels in plasma (glycated albumin; listed as ADPIF): significant drop in glycated albumin levels
- glucose intolerance / hyperglycemia (ipGTT) (db/db male mice): able to prevent hyperglycemia
- glucose intolerance / hyperglycemia (ipGTT) (db/db male mice; listed as PATAS/ADPIF): significant improvement of the glucose intolerance
- glucose uptake (glucose absorption) [2]: as effective as Insulin
- glucose tolerance (ipGTT) (Bbs10-/- mice): improved glucose tolerance
- ipGTT area under the curve (AUC) (Bbs10-/- mice; before injection ~30000, n=4): ~16000 mg·min/dL
- PKC activity, dose response (PKC; 30 minutes incubation, PATAS quantities in μg per well, n=5): increasing PKC activity with increasing ADPIF/PATAS quantity
- Fatp2 expression levels in adipose tissue (sWAT) (FATP2): able to decrease the expression of FATP2
- Fatp2 expression levels in adipose tissue (sWAT) (FATP2; listed as PATAS): specific and significant drop in Fatp2 expression levels
- area under the curve (AUC) of glucose tolerance test [1]: more effective than PATAD to reduce the AUC
- glucose intolerance (ipGTT) [1]: more active than PATAD peptide
